From patent publication US20050256182A1, “Formulations of anti-pain agents and methods of using the same” (priority 2004, published 2005) come the findings set out here.

Each structure is given as a SMILES string.

The nature of this data set: Crossover PK study: sumatriptan plasma levels (LC/MS/MS) after ID, junctional or SC administration; Tmax, Cmax, AUC, relative F. Format: in vivo. The settings on record: Yucatan miniswine, mean; for AUC 0-10 min: Yucatan, minipig, plasma, AUC 10 min.
The mark [1] stands for this setting: 3 × 3 mm × 34 g, 12 mg/ml, 5 minutes metered bolus.
[2] abbreviates: SC, 12 mg/ml (reference condition).

Protocol: Percent (%) relative Bioavailability (F) for each dosing condition was calculated compared to the SC condition: [formula]

On to `CNS(=O)(=O)Cc1ccc2[nH]cc(CCN(C)C)c2c1` [sumatriptan, 3-[2-(dimethylamino)ethyl]-N-methyl-indole-5-methanesulfonamide], for which the C max (1 × 2 mm × 30 g, 30 mg/ml) is 849.333 ng/mL; the C max (1 × 3 mm × 30 g, 30 mg/ml) was 836.667 ng/mL; the C max under setting [1] came out at 705.833 ng/mL. Also, the “rel. F 10 min” value under setting [2] turned out to be 100.000%. In addition, under setting [2], the “rel. F Total” value amounted to 100.000%. Also, the AUC 0-10 min reads like this: (1 × 1.5 mm × 30 g, 0 mg/ml) 84.7 ng·h/mL; (1 × 2 mm × 30 g, 30 mg/ml) 75.2 ng·h/mL; (1 × 3 mm × 30 g, 30 mg/ml) 86.4 ng·h/mL; (3 × 2 mm × 34 g, 30 mg/ml) 69.5 ng·h/mL; under setting [1], 52.8 ng·h/mL; (3 × 3 mm × 34 g, 30 mg/ml, 2 minute metered bolus) 53.4 ng·h/mL. Also, the AUC 0-10 min reads like this: (iv, 12 mg/ml) 59.8 ng·h/mL; (sc, 12 mg/ml) 45.3 ng·h/mL.
